Test system: HIV transcripts (TAR, LLTR, Pol, PolyA, TatRev)
Assay: Baseline HIV transcription without activation, PBMCs from ART-suppressed PWH, 24 hours
Assay type: cell-based
Details: no activation; for HIV splicing (TatRev/PolyA) without activation: not statistically significant; for LLTR HIV transcripts (DMSO = 100) / Pol HIV transcripts (DMSO = 100) / PolyA HIV transcripts (DMSO = 100) / Tat-Rev HIV transcripts (DMSO = 100) / TAR HIV transcripts (DMSO = 100) / PolyA/LLTR ratio (DMSO = 1) / TatRev/PolyA ratio (DMSO = 1) / LLTR/TAR ratio (DMSO = 1): ruxolitinib 4μM, dinaciclib 8nM, AZD4573 8nM, KRIBB11 2.5μM; for LLTR HIV transcripts (DMSO = 100) / Pol HIV transcripts (DMSO = 100) / PolyA HIV transcripts (DMSO = 100) / Tat-Rev HIV transcripts (DMSO = 100) / TAR HIV transcripts (DMSO = 100): pladienolide B 10nM; for PolyA/LLTR ratio (DMSO = 1) / TatRev/PolyA ratio (DMSO = 1) / LLTR/TAR ratio (DMSO = 1): pladienolide B
Experimental: For a selection of the compounds, we evaluated the ability to reduce baseline HIV transcription without activation. PBMCs were cultured in the presence of individual drugs in DMSO or DMSO alone as a control and harvested after 24 hours. For each drug, we tested PBMCs from at least 3 PWH, as indicated in Supplemental Figure 5B. […] Likewise, pladienolide B appeared to reduce the level of multiply spliced transcripts (33%, Supplemental Figure 5, A and B).
PBMCs were isolated from fresh venous blood from 16 ART-suppressed HIV-infected study participants using Ficoll density gradient centrifugation. The cells were seeded at 6 × 10^6 cells/well and cultured with antiretrovirals (nevirapine and indinavir) to prevent new infection. On the next day, PBMCs were activated with anti-CD3/CD28–coated beads (Invitrogen) in the presence of 20 U/mL IL-2 and individual drugs in DMSO or DMSO alone as a control. Since we were limited in the PBMC yield per study participant, different study participants were used for different experiments (such as the initial screen, dose response, different time points, and studies in activated vs. unstimulated cells). In addition, the yields of PBMCs were sometimes insufficient to test all drugs for a given question or experiment.
Total cellular DNA and RNA were extracted in parallel using Trireagent (Molecular Research Center) according to the manufacturer’s instructions, except for study participants 2147 and 2461 (Figure 4), for whom DNA and RNA were extracted using the QIAGEN AllPrep DNA/RNA/miRNA Universal Kit with on-column DNase I treatment of the RNA and the manufacturer’s modification to enhance recovery of short transcripts. RNA and DNA concentrations were measured using UV spectrophotometry (NanoDrop One, Thermo Fisher Scientific). Total initiated HIV (TAR) transcripts were quantified by a 3-step polyadenylation RT-ddPCR as described previously ([8], [84]). HIV 5′ elongated (LLTR), midtranscribed (Pol), completed (PolyA), and multiply spliced (TatRev) transcripts were quantified by a 2-step RT-ddPCR as previously described ([8]). The levels of each HIV transcript were normalized to 1 μg of total cellular RNA and expressed as a percentage of the (activated) DMSO control. To quantify virion-associated RNA in supernatant, RNA was extracted from 400 μL supernatant using Trireagent-LS (Molecular Research Center) according to the manufacturer’s instructions. Levels of U3-polyadenylated HIV RNA were measured in the supernatant by RT-ddPCR, normalized to copies/mL, and expressed as a percentage of the activated DMSO. For measuring the HIV infection frequency at day 6, the HIV DNA U3-U5 LTR region was quantified by using ddPCR as described previously ([8]). HIV DNA copies were normalized to cell numbers according to the mass of DNA input per well (calculated from the DNA concentration and input volume) ([85]).
Figure S5. CDK-inhibitors appear to decrease baseline HIV splicing even in the absence of T cell activation. Each drug was tested in PBMCs from at least three ART-suppressed study participants and PBMCs were aliquoted into wells at 6x10^6 cells/well. The cells were cultured with antiretrovirals but without activation in the presence of individual drugs in (1 picture or pasted object on this page, not shown here)
DMSO or DMSO alone as control. After 24h, total RNA was extracted and the progression through different stages of HIV transcription was quantified by measuring the levels of initiated (TAR), 5’ elongated (LLTR), mid-transcribed/unspliced (Pol), completed (PolyA) and multiply spliced (TatRev) HIV transcripts. A-B) The levels of all HIV transcripts were quantified, normalized to 1 µg of total cellular RNA, and expressed as a percent of the DMSO control (% of DMSO). A) Medians are shown, as well as the values of the individual study participants in different colors. B) The medians from panel A) are presented. The effect of each drug on the different transcripts was studied in three to six study participants, as […]

[1] = participant 5557 (DMSO cell empty)

SMILES | 5′ elongated HIV transcripts without activation compared to DMSO (24 hours) | Completed HIV transcripts without activation compared to DMSO (24 hours) | HIV splicing (TatRev/PolyA) without activation (24 hours) | LLTR HIV transcripts (DMSO = 100) (participant 156) | Pol HIV transcripts (DMSO = 100) (participant 156) | PolyA HIV transcripts (DMSO = 100) (participant 156) | Tat-Rev HIV transcripts (DMSO = 100) (participant 156) | LLTR HIV transcripts (DMSO = 100) (participant 163) | Pol HIV transcripts (DMSO = 100) (participant 163) | PolyA HIV transcripts (DMSO = 100) (participant 163) | Tat-Rev HIV transcripts (DMSO = 100) (participant 163) | LLTR HIV transcripts (DMSO = 100) (participant 1379) | Pol HIV transcripts (DMSO = 100) (participant 1379) | PolyA HIV transcripts (DMSO = 100) (participant 1379) | TAR HIV transcripts (DMSO = 100) (participant 1379) | LLTR HIV transcripts (DMSO = 100) (participant 2027) | Pol HIV transcripts (DMSO = 100) (participant 2027) | PolyA HIV transcripts (DMSO = 100) (participant 2027) | TAR HIV transcripts (DMSO = 100) (participant 2027) | LLTR HIV transcripts (DMSO = 100) (participant 2750) | other results
CCc1cnn2c(NCc3ccc[n+]([O-])c3)cc(N3CCCC[C@H]3CCO)nc12 [dinaciclib] | did not reduce | did not reduce | severely reduce | 121.36 | 49.08 | 67.47 | 0 | 142.94 | 207.39 | 173.7 | 0 | 40.3 | 0 | 20.95 | 228.89 | 82.61 | 131.38 | 193.29 | 248.84 | 83.98 | Pol HIV transcripts (DMSO = 100) (participant 2750): 102.74; PolyA HIV transcripts (DMSO = 100) (participant 2750): 91.99; TAR HIV transcripts (DMSO = 100) (participant 2750): 108.94; Tat-Rev HIV transcripts (DMSO = 100) (participant 2750): 0; LLTR HIV transcripts (DMSO = 100) [1]: 59.59; Pol HIV transcripts (DMSO = 100) [1]: 0; TAR HIV transcripts (DMSO = 100) (participant 5557): 176.06
CC(=O)N[C@@H]1CCC[C@H](C(=O)Nc2cc(-c3cnn4c3CC(C)(C)C4)c(Cl)cn2)C1 [AZD4573] | did not reduce | did not reduce | severely reduce | 37.81 | 28.11 | 93.77 | 0 | 69.35 | 112.58 | 122.94 | 0 | 41.73 | 110.74 | 43.19 | 286.67 | 76.52 | 30.35 | 87.13 | 211.63 | 134.54 | Multiply spliced HIV transcripts without activation, median relative to DMSO (24 hours, at least 3 PWH): 0%; PolyA/LLTR ratio (DMSO = 1) (participant 156): 2.48; TatRev/PolyA ratio (DMSO = 1) (participant 156): 0; PolyA/LLTR ratio (DMSO = 1) (participant 163): 1.773; TatRev/PolyA ratio (DMSO = 1) (participant 163): 0; LLTR/TAR ratio (DMSO = 1) (participant 1379): 0.1456; PolyA/LLTR ratio (DMSO = 1) (participant 1379): 1.035; LLTR/TAR ratio (DMSO = 1) (participant 2027): 0.3616; PolyA/LLTR ratio (DMSO = 1) (participant 2027): 1.1386; Pol HIV transcripts (DMSO = 100) (participant 2750): 202.4; PolyA HIV transcripts (DMSO = 100) (participant 2750): 70.63; TAR HIV transcripts (DMSO = 100) (participant 2750): 206.7; Tat-Rev HIV transcripts (DMSO = 100) (participant 2750): 0; LLTR/TAR ratio (DMSO = 1) (participant 2750): 0.6509; PolyA/LLTR ratio (DMSO = 1) (participant 2750): 0.525; TatRev/PolyA ratio (DMSO = 1) (participant 2750): 0; LLTR HIV transcripts (DMSO = 100) [1]: 170.71; Pol HIV transcripts (DMSO = 100) [1]: 0; TAR HIV transcripts (DMSO = 100) (participant 5557): 348.03; LLTR/TAR ratio (DMSO = 1) (participant 5557): 0.57
CNc1ccc([N+](=O)[O-])c(Nc2ccc3[nH]ncc3c2)n1 [KRIBB11] |  |  |  | 90.95 | 85.77 | 144.03 | 735.63 | 72.79 | 89.89 | 74.5 | 0 |  |  |  |  | 71.57 | 64.26 | 97.36 | 144.19 |  | HIV transcription levels in the absence of T cell activation (in words) (24 hours, at least 3 PWH): little effect; PolyA/LLTR ratio (DMSO = 1) (participant 156): 1.584; TatRev/PolyA ratio (DMSO = 1) (participant 156): 5.108; PolyA/LLTR ratio (DMSO = 1) (participant 163): 1.0234; TatRev/PolyA ratio (DMSO = 1) (participant 163): 0; LLTR/TAR ratio (DMSO = 1) (participant 2027): 0.4964; PolyA/LLTR ratio (DMSO = 1) (participant 2027): 1.36
